Experimental data: ChEMBL document CHEMBL1201862, “PubChem BioAssay data set” (2004)
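Following 48 hours of exposure in 96-well plates, responses at five concentrations were used to interpolate endpoints linearly. GI50 marks 50% less growth.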 The source made the active and inactive calls. Rule as the data show it: active = GI50 up to about 1.1 µM and inactive = higher.

Key:
Assay in all cases: inhibition of tumour cell growth, NCI panel, 48 h
A549 = test system: A549
ACHN = test system: ACHN
HCC 2998 = test system: HCC 2998
HCT-116 = test system: HCT-116
HL-60 = test system: HL-60
HT-29 = test system: HT-29
KM12 = test system: KM12
LOX IMVI = test system: LOX IMVI
MDA-MB-435 = test system: MDA-MB-435
Malme-3M = test system: Malme-3M
NCI/ADR-RES = test system: NCI/ADR-RES
OVCAR-3 = test system: OVCAR-3
OVCAR-4 = test system: OVCAR-4
RPMI-8226 = test system: RPMI-8226
SF-539 = test system: SF-539
SK-MEL-28 = test system: SK-MEL-28
SK-MEL-2 = test system: SK-MEL-2
SK-MEL-5 = test system: SK-MEL-5
SN12C = test system: SN12C
SF-295 = test system: SF-295

Row | Structure (SMILES) | GI50 (A549) | GI50 (ACHN) | GI50 (HCC 2998) | GI50 (HCT-116) | GI50 (HL-60) | GI50 (HT-29) | GI50 (KM12) | GI50 (LOX IMVI) | GI50 (MDA-MB-435) | GI50 (Malme-3M) | GI50 (NCI/ADR-RES) | GI50 (OVCAR-3) | GI50 (OVCAR-4) | GI50 (RPMI-8226) | GI50 (SF-539) | GI50 (SK-MEL-28) | GI50 (SK-MEL-2) | GI50 (SK-MEL-5) | GI50 (SN12C) | GI50 (SF-295)
1 | CCCCCCCCCCCCCCCCNc1nc(=O)n(C2CC(O)C(COP(=O)(O)OC3CC(n4cc(F)c(=O)[nH]c4=O)OC3CO)O2)cc1F (stereo not given) | 0.0333 µM (active) | 0.0234 µM (active) | < 0.01 µM (active) | 0.504 µM (active) | 0.328 µM (active) | 1.87 µM (inactive) | 20.7 µM (inactive) | 0.0637 µM (active) | 13.1 µM (inactive) | 12.1 µM (inactive) | 0.634 µM (active) | 10 µM (inactive) | 92.3 µM (inactive) | 0.0822 µM (active) | < 0.0108 µM (active) | 14.2 µM (inactive) | 30.1 µM (inactive) | 0.571 µM (active) | 0.264 µM (active) | 
2 | Cn1c2ccccc2n2c3ccccc3c3nnc(N)c-3c12 | > 100 µM (inactive) | 91.2 µM (inactive) | 41.2 µM (inactive) | 35.2 µM (inactive) | > 100 µM (inactive) | > 100 µM (inactive) | 61.5 µM (inactive) | 57.7 µM (inactive) | > 88.7 µM (inactive) | 10.5 µM (inactive) | > 100 µM (inactive) | 28.2 µM (inactive) | 41 µM (inactive) | > 100 µM (inactive) |  | > 81.3 µM (inactive) | 22.6 µM (inactive) | 28.9 µM (inactive) | 0.757 µM (active) | 5.58 µM (inactive)
3 | O=c1[nH]nc(Cc2ccccc2)n1/N=C\c1ccccc1 | > 100 µM (inactive) | > 100 µM (inactive) | > 100 µM (inactive) | > 100 µM (inactive) | > 100 µM (inactive) | > 100 µM (inactive) | > 100 µM (inactive) | > 100 µM (inactive) | > 100 µM (inactive) | > 100 µM (inactive) | > 100 µM (inactive) | > 100 µM (inactive) | > 100 µM (inactive) | > 100 µM (inactive) | > 100 µM (inactive) | > 100 µM (inactive) | 31.2 µM (inactive) | > 100 µM (inactive) | > 100 µM (inactive) | 43.9 µM (inactive)
4 | CC(=O)N1C(c2[nH]c3ccccc3c2Cc2ccccc2)CCN1c1ccccc1 (stereo not given) | 4.88 µM (inactive) | 3.04 µM (inactive) | 5.97 µM (inactive) | 4.72 µM (inactive) | 5.42 µM (inactive) | > 10 µM (inactive) |  | > 10 µM (inactive) | 9.06 µM (inactive) | > 10 µM (inactive) | 9.02 µM (inactive) | > 10 µM (inactive) | > 10 µM (inactive) | 6.49 µM (inactive) | > 10 µM (inactive) | > 10 µM (inactive) | > 10 µM (inactive) | > 10 µM (inactive) | > 10 µM (inactive) | 4.35 µM (inactive)
5 | CCOc1c2ccsc2c(OCC)c2ccsc12 | 7.21 µM (inactive) | 7.1 µM (inactive) | 6.56 µM (inactive) | 4.06 µM (inactive) | 2.07 µM (inactive) | 3.48 µM (inactive) | 3.77 µM (inactive) | 2.61 µM (inactive) | 0.766 µM (active) | 3.73 µM (inactive) | 7.05 µM (inactive) | 3.52 µM (inactive) | > 100 µM (inactive) | 4.06 µM (inactive) | 2.41 µM (inactive) | 9.38 µM (inactive) | > 30.1 µM (inactive) | 3.34 µM (inactive) | 20.6 µM (inactive) | 2.57 µM (inactive)
6 | N=C(N)c1ccc2oc3ccc(C(=N)N)cc3c(=O)c2c1 | > 100 µM (inactive) | > 100 µM (inactive) | > 100 µM (inactive) | > 100 µM (inactive) | > 100 µM (inactive) | > 100 µM (inactive) | > 100 µM (inactive) |  | > 100 µM (inactive) | 98.2 µM (inactive) | > 100 µM (inactive) | > 100 µM (inactive) | > 100 µM (inactive) | > 100 µM (inactive) | > 100 µM (inactive) | > 100 µM (inactive) | > 100 µM (inactive) | > 100 µM (inactive) | > 100 µM (inactive) | > 100 µM (inactive)
7 | COc1cc2oc(-c3ccc(O)cc3)c(OC3OC(C)C(O)C(O)C3O)c(=O)c2c(O)c1OC (stereo not given) | 79.6 µM (inactive) | 90.8 µM (inactive) | > 100 µM (inactive) | 80.4 µM (inactive) | 32.9 µM (inactive) | > 100 µM (inactive) | > 100 µM (inactive) | 57.7 µM (inactive) | > 100 µM (inactive) | 96.2 µM (inactive) | 75.5 µM (inactive) | > 100 µM (inactive) | 57.8 µM (inactive) | 16.7 µM (inactive) | > 100 µM (inactive) | > 100 µM (inactive) | > 100 µM (inactive) | 45.1 µM (inactive) | > 100 µM (inactive) | > 100 µM (inactive)
8 | Cn1cnc(N)c(N=O)c1=O | > 10 µM (inactive) | > 10 µM (inactive) | > 10 µM (inactive) | > 10 µM (inactive) | > 10 µM (inactive) | > 10 µM (inactive) | > 10 µM (inactive) | > 10 µM (inactive) | > 10 µM (inactive) | > 10 µM (inactive) | > 10 µM (inactive) | > 10 µM (inactive) | > 10 µM (inactive) | > 10 µM (inactive) | > 10 µM (inactive) | > 10 µM (inactive) | > 10 µM (inactive) | > 10 µM (inactive) | > 10 µM (inactive) | > 10 µM (inactive)
9 | O=[N+]([O-])c1cccc2nc3ccccc3c(NCCCCNc3c4ccccc4nc4cccc([N+](=O)[O-])c34)c12 | 0.0347 µM (active) | 0.017 µM (active) | 0.0254 µM (active) | 0.0143 µM (active) | < 0.01 µM (active) | < 0.01 µM (active) | 0.0401 µM (active) | 0.0621 µM (active) | 0.0489 µM (active) | 0.0766 µM (active) | 0.248 µM (active) | 0.0395 µM (active) | 0.0948 µM (active) | 0.0301 µM (active) | 0.0244 µM (active) | 0.164 µM (active) | 0.141 µM (active) | 0.0365 µM (active) | 0.0414 µM (active) | 0.0927 µM (active)
10 | Oc1nncc2[nH]c(-c3ccccc3)cc12 | 49.3 µM (inactive) | 46.3 µM (inactive) | 36 µM (inactive) | 57.7 µM (inactive) | 71.9 µM (inactive) | 36.4 µM (inactive) | 35.1 µM (inactive) | 66.1 µM (inactive) | 28.2 µM (inactive) | 56.9 µM (inactive) | 25.2 µM (inactive) | 36.2 µM (inactive) | 55.1 µM (inactive) | 56.4 µM (inactive) |  |  | 29.6 µM (inactive) | 23.3 µM (inactive) | 54.1 µM (inactive) | 26.2 µM (inactive)
11 | CC(C)C/C=C/C1=NN(c2cccc(S(=O)(=O)O)c2)C2(C1)SCC(=O)N2c1nc2ccccc2s1 (stereo not given) | 89.1 µM (inactive) | 72.4 µM (inactive) | > 100 µM (inactive) | 67.8 µM (inactive) | 29.9 µM (inactive) | > 100 µM (inactive) | 36.7 µM (inactive) | 26.8 µM (inactive) | 31.1 µM (inactive) | 93.1 µM (inactive) | 71.6 µM (inactive) |  | 61.7 µM (inactive) | 21.6 µM (inactive) | 61.4 µM (inactive) | > 100 µM (inactive) | 35.2 µM (inactive) | 64 µM (inactive) | 31.9 µM (inactive) | 
12 | CC(=O)OCC1OC(Oc2cc(C)c(O)cc2C/C=C(\C)CC/C=C(\C)CC(=O)CC(C)C)C(O)C(OC(C)=O)C1OC(C)=O (stereo not given) | 7.8 µM (inactive) | 14.2 µM (inactive) | 10.7 µM (inactive) | 18.2 µM (inactive) | 10.8 µM (inactive) | 6 µM (inactive) | 12.5 µM (inactive) | 13 µM (inactive) | 15 µM (inactive) | > 50 µM (inactive) | 11.4 µM (inactive) | 8.81 µM (inactive) | 19.6 µM (inactive) | 9.16 µM (inactive) |  | 27.4 µM (inactive) | 10.2 µM (inactive) | 8.13 µM (inactive) | 15.2 µM (inactive) | 15.1 µM (inactive)
13 | CC(C)C(C=O)C(O)(C(F)(F)F)C(F)(F)F (stereo not given) | > 100 µM (inactive) | > 100 µM (inactive) | > 100 µM (inactive) | > 100 µM (inactive) | > 100 µM (inactive) | > 100 µM (inactive) | > 100 µM (inactive) | > 100 µM (inactive) | > 100 µM (inactive) | > 100 µM (inactive) | > 100 µM (inactive) | > 100 µM (inactive) | > 100 µM (inactive) | > 100 µM (inactive) | > 100 µM (inactive) | > 100 µM (inactive) | > 100 µM (inactive) | > 100 µM (inactive) |  | > 100 µM (inactive)
14 | CC(=O)NC1=C(C)C(=O)c2c(nc3n2CCC3OC(=O)c2ccccc2)C1=N (stereo not given) | 3.18 µM (inactive) | 1.71 µM (inactive) | 2.06 µM (inactive) | 3.15 µM (inactive) | 1.21 µM (inactive) | 0.973 µM (active) | 4.55 µM (inactive) | 0.406 µM (active) | 0.166 µM (active) | 1.13 µM (inactive) | 2.93 µM (inactive) | 0.552 µM (active) | 0.518 µM (active) | 1.31 µM (inactive) | 1.25 µM (inactive) | 1.8 µM (inactive) | 1.76 µM (inactive) | 1.42 µM (inactive) | 1.72 µM (inactive) | 2.86 µM (inactive)
